{"source": "paper PMC2361459", "about": "“Safety, tolerability and pharmacokinetics of intravenous ghrelin for cancer-related anorexia/cachexia: a randomised, placebo-controlled, double-blind, double-crossover study” (British Journal of Cancer, 2008)", "key": {"[1]": {"test_system": "patients with advanced incurable cancer and anorexia/cachexia", "conditions": "in vivo"}, "[2]": {"conditions": "stated in discussion, no reference given; cited from earlier work", "method": "Ghrelin levels were normal before infusion at 1030 hours. Renal function was not impaired. These unexpected findings of total, but not active, ghrelin remain unexplained at present but may indeed be without any physiological significance."}, "[3]": {"test_system": "patients with advanced incurable cancer and anorexia/cachexia", "conditions": "human, in vivo"}, "[4]": {"test_system": "patients with advanced incurable cancer and anorexia/cachexia", "assay": "Radiological tumour measurements", "type": "in vivo, human"}, "interleukin-6": {"test_system": "interleukin-6", "assay": "Plasma IL-6 levels (ELISA)", "type": "in vivo, human", "conditions": "throughout the treatment period; results not shown", "method": "(§1) For ghrelin assays, 5 ml blood was collected in a precooled EDTA vacutainer tube containing aprotinin (33 kIU), placed immediately on ice, and centrifuged (4°C, 3000 G, 5 min). For each millilitre of plasma, 10 μl PMSF-Isopropanol, 50 μl 1N-HCL, and 50 μl aprotinin were added, and aliquots were stored at −80°C until batch analysis. Serum was collected and cooled for GH, insulin-like growth factor 1 (IGF-1), interleukin-6 (IL-6), and leptin analysis. Testosterone radioimmunoassays (Diagnostic Products Corporation; Bühlmann, Salzburg, Austria) were performed from serum sent to routine safety labs. The radioimmunoassay kits used for total and active ghrelin were from Linco Research (St Charles, MO, USA); for GH (active GH IRMA immunoradiometric assay) from Diagnostic Systems Laboratory (Webster, TX, USA); for IGF-1 (human, bovine) from Peninsula Laboratories (San Carlos, CA, USA); for IL-6 (Quantikine human ELISA) from R&D Systems (Minneapolis, MN, USA); and for leptin (human RIA) from Millipore (Billerica, MA, USA)."}, "cancer patients": {"test_system": "cancer patients", "conditions": "seven cancer patients; 5 pmol kg^−1 min^−1 for 180 min equals 3 μg kg^−1; no adverse effects; ref Neary et al, 2004; cited from earlier work", "source_text": "In melanoma-bearing nude mice, ghrelin plasma concentration increased with cachexia progression ([Hanada et al, 2004]). In cancer patients with cachexia (various cancers, n=21 ([Garcia et al, 2005]); breast and colorectal cancer, n=18 ([Wolf et al, 2006]); lung cancer, n=21 ([Shimizu et al, 2003])), ghrelin morning fasting levels were 1.3- to 1.5-fold higher than in those without cachexia and healthy controls. In contrast, ghrelin levels were normal in subgroups of patients in one study (39%) ([Wolf et al, 2006]) and all patients in another study (gastric and colorectal cancer, n=58) ([Huang e ..."}, "growth hormone (GH)": {"test_system": "growth hormone (GH)", "assay": "Serum growth hormone (GH) response to i.v. ghrelin (IRMA)", "type": "in vivo, human", "method": "(§2) Normal saline was used as placebo.\nas §1\n(§3) All analyses were performed with SPSS (Version 11.5)."}, "[5]": {"test_system": "insulin-like growth factor 1", "assay": "Serum insulin-like growth factor 1 (IGF-1) levels", "type": "in vivo, human", "method": "as §1, §3"}, "[6]": {"set-up": "species or system human", "conditions": "in vivo", "method": "as §2, §1, §3"}, "[7]": {"test_system": "patients with advanced incurable cancer and anorexia/cachexia", "assay": "Autonomic function: standard deviation of beat-to-beat intervals (SDNN)", "type": "in vivo, human", "conditions": "UD (n=9), ghrelin, P=NS", "method": "Autonomic dysfunction was assessed as described previously ([Strasser et al, 2006]). Standard deviation of beat-to-beat intervals (SDNN) was analysed at baseline and at end of study for 20 min in both the LD and UD; and in the UD, in addition, 30 min before infusion until after lunch on treatment days.\nas §3"}}}
{"compound": "CCCCCCCC(=O)OC[C@H](NC(=O)[C@H](CO)NC(=O)CN)C(=O)N[C@@H](Cc1ccccc1)C(=O)N[C@@H](CC(C)C)C(=O)N[C@@H](CO)C(=O)N1CCC[C@H]1C(=O)N[C@@H](CCC(=O)O)C(=O)N[C@@H](Cc1cnc[nH]1)C(=O)N[C@@H](CCC(N)=O)C(=O)N[C@@H](CCCNC(=N)N)C(=O)N[C@H](C(=O)N[C@@H](CCC(N)=O)C(=O)N[C@@H](CCC(N)=O)C(=O)N[C@@H](CCCNC(=N)N)C(=O)N[C@@H](CCCCN)C(=O)N[C@@H](CCC(=O)O)C(=O)N[C@@H](CO)C(=O)N[C@@H](CCCCN)C(=O)N[C@@H](CCCCN)C(=O)N1CCC[C@H]1C(=O)N1CCC[C@H]1C(=O)N[C@@H](C)C(=O)N[C@@H](CCCCN)C(=O)N[C@@H](CC(C)C)C(=O)N[C@@H](CCC(N)=O)C(=O)N1CCC[C@H]1C(=O)N[C@@H](CCCNC(=N)N)C(=O)O)C(C)C", "note": "[ghrelin]", "values": [{"measurement": "abdominal pain, between infusion days (drug-related adverse events, grade 1 or 2)", "setting": "[1]", "value": 2}, {"measurement": "abdominal pain, during infusion on treatment days (drug-related adverse events, grade 1 or 2)", "setting": "[1]", "value": 3}, {"measurement": "abnormal liver tests or low potassium, possibly or probably related adverse events", "setting": "[1]", "value": "three"}, {"measurement": "asthenia, during infusion on treatment days (drug-related adverse events, grade 1 or 2)", "setting": "[1]", "value": 1}, {"measurement": "body temperature and oxygen saturation during and after the infusion", "setting": "[1]", "value": "remained unchanged"}, {"measurement": "diarrhea, between infusion days (drug-related adverse events, grade 1 or 2)", "setting": "[1]", "value": 1}, {"measurement": "dry mouth, during infusion on treatment days (drug-related adverse events, grade 1 or 2)", "setting": "[1]", "value": 3}, {"measurement": "increased CRP, possibly or probably related adverse events", "setting": "[1]", "value": "two"}, {"measurement": "nausea, between infusion days (drug-related adverse events, grade 1 or 2)", "setting": "[1]", "value": 1}, {"measurement": "shortness of breath (overeaten, aspiration), during infusion on treatment days (drug-related adverse events, grade 1 or 2)", "setting": "[1]", "value": 1}, {"measurement": "sweating, during infusion on treatment days (drug-related adverse events, grade 1 or 2)", "setting": "[1]", "value": 2}, {"measurement": "vomiting, between infusion days (drug-related adverse events, grade 1 or 2)", "setting": "[1]", "value": 1}, {"measurement": "worsening of pre-existing neuropathy, during infusion on treatment days (drug-related adverse events, grade 1 or 2)", "setting": "[1]", "value": 1}, {"measurement": "half-life", "setting": "[2]", "value": "approximately 15 min"}, {"measurement": "mean scores for tolerability of the study medication immediately after infusion and after lunch", "setting": "[3]", "value": "did not differ between ghrelin and placebo"}, {"measurement": "patients with progressive disease (PD) during the study period", "setting": "[4]; both dose groups, crossover ghrelin/placebo", "value": "two"}, {"measurement": "tumour-growth dynamics", "setting": "[4]; short intervals of tumour measurements", "value": "no major unexpected tumour-growth dynamics"}, {"measurement": "plasma levels of IL-6", "setting": "interleukin-6", "value": "did not change"}, {"measurement": "energy intake with i.v. ghrelin, higher than with placebo", "setting": "cancer patients", "value": 31, "unit": "%"}, {"measurement": "mean difference of the peak GH levels (of week 1 and week 2) compared to baseline", "setting": "growth hormone (GH); LD, 10 pmol kg^−1 min^−1 (about 2 μg kg^−1) i.v., SD 6, P=0.004 vs UD", "value": 28, "unit": "ng/mL"}, {"measurement": "mean difference of the peak GH levels (of week 1 and week 2) compared to baseline", "setting": "growth hormone (GH); UD, 40 pmol kg^−1 min^−1 (about 8 μg kg^−1) i.v., SD 20, P=0.004 vs LD", "value": 50, "unit": "ng/mL"}, {"measurement": "peak increase of GH", "setting": "growth hormone (GH); upper-dose ghrelin 8 μg kg^−1 i.v. over 60 min, cancer patients", "value": 42, "unit": "ng/mL"}, {"measurement": "mean IGF-1 at day 17/18", "setting": "[5]; LD (n=7), ±994", "value": 1359, "unit": "pg per 100 μl"}, {"measurement": "mean IGF-1 at day 17/18", "setting": "[5]; UD (n=9), ±495", "value": 1096, "unit": "pg per 100 μl"}, {"measurement": "insulin-like growth factor 1 levels", "setting": "[5]; both dose groups, over the study", "value": "did not change"}, {"measurement": "morning fasting total ghrelin levels 3 days after the prior ghrelin infusion compared to after placebo", "setting": "[6]", "value": "elevated"}, {"measurement": "mean SDNN", "setting": "[7]; week 1, placebo 78±35", "value": "84 ± 40", "unit": "ms"}, {"measurement": "mean SDNN", "setting": "[7]; week 2, placebo 80±27", "value": "75 ± 35", "unit": "ms"}]}
